Reference: patent EP0573682A1, “Tea polyphenols as anti-hyperglycemic agents” (MITSUI NORIN CO., LTD., priority 1992, dated 1993)

How the values were obtained:
[1] = test system: ICR mice; experiment: Acute toxicity; type: in vivo; settings: perorally administered; 6 week ICR male mice; 10080 min
Method: (§1) (-)Epigallocatechin gallate was tested with respect to its acute toxicity. Where (-)epigallocatechin gallate was perorally administered to 6 week ICR male mice, LD₅₀ after one week was 2314mg/kg. Where (-)epigallocatechin was administered intraperitonealy to 5 week old female ICR mice, LD₅₀ after one week was 150mg/kg.

[2] = Acute toxicity; type: in vivo, mice; settings: mouse, in vivo, ip; administered intraperitonealy; 5 week old female ICR mice; read-out: LD₅₀ after one week
Method: as §1

Structure (SMILES): O=C(O[C@@H]1Cc2c(O)cc(O)cc2O[C@@H]1c1cc(O)c(O)c(O)c1)c1cc(O)c(O)c(O)c1 [(-)epigallocatechin gallate, (-) Epigallocatechin gallate]
- LD₅₀ after one week [1]: 2314 mg/kg

Structure (SMILES): Oc1cc(O)c2c(c1)O[C@H](c1cc(O)c(O)c(O)c1)[C@H](O)C2 [(-)epigallocatechin, (-) Epigallocatechin]
- LD50 at 168 h [2]: 150 mg/kg
